Results as given in patent US8697865B2, “Cyclic amide derivative, and its production and use” (Takeda Pharmaceutical Company Limited, priority 2004, dated 2014).
Where a name gives a salt, the structure may show the parent alone.

What was measured:
human FXa = human FXa (Homo sapiens, UniProt P00742); test: Inhibitory action of human activated blood coagulation factor X (FXa); assay type: biochemical; details: chromogenic substrate S-2765, 37° C., absorbance at 405 nm, read-out: IC50 (concentration inhibiting FXa activity by 50%)
Sequence of human FXa (P00742 235-488 limits assumed): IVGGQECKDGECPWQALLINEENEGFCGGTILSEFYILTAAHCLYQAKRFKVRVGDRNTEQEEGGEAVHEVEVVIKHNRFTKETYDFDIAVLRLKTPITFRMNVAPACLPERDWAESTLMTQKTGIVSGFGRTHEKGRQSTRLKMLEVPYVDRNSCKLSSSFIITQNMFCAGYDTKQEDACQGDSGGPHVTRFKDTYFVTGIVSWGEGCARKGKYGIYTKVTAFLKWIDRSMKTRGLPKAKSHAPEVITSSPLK
Sequence of human FXa (P00742 41-179 partner limits assumed): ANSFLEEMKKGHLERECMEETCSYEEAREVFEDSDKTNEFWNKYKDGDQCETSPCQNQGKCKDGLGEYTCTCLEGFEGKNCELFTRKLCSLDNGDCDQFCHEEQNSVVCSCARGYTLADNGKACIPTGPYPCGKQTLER

| IC50 (human FXa) [nM] | melting point [°C] | SMILES |
| --- | --- | --- |
| 6.6 | 198 | O=C([C@H](O)CS(=O)(=O)c1ccc2cc(Cl)ccc2c1)N1CCN(N2CCCCC2=O)CC1 [Example 8, 1-(4-{(2S)-3-[(6-Chloronaphthalen-2-yl)sulfonyl]-2-hydroxypropanoyl}piperazin-1-yl)piperidin-2-one] |
| 4.2 | – | O=C([C@H](O)CS(=O)(=O)c1ccc2cc(Cl)ccc2c1)N1CCN(N2CCCNC2=O)CC1 [Example 25, 1-(4-{(2S)-3-[(6-Chloronaphthalen-2-yl)sulfonyl]-2-hydroxypropanoyl}piperazin-1-yl)tetrahydropyrimidin-2(1H)-one] |
| 9.9 | – | O=C(CCS(=O)(=O)c1ccc2cc(Cl)ccc2c1)N1CCN(N2CCCNC2=O)CC1 [Example 33, 1-(1-{3-[(6-Chloronaphthalen-2-yl)sulfonyl]propanoyl}piperazin-4-yl)tetrahydropyrimidin-2(1H)-one] |
| 4.8 | – | N=C1CCCCN1C1CCN(C(=O)[C@H](O)CS(=O)(=O)c2ccc3cc(Cl)ccc3c2)CC1 [Example 43, (2S)-3-[(6-Chloronaphthalen-2-yl)sulfonyl]-1-(2-imino-1,4′-bipiperidin-1′-yl)-1-oxopropan-2-ol trifluoroacetate] |
